{"source": "PubChem BioAssay AID1963435", "about": "(Molecular Pharmacology Branch, DTP, NCI, 2024)", "system": "PANC-1 complex spheroid growth, percent test/control", "test": "Anticancer human tumor PANC-1 cell line growth inhibition [Asc];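 on all read-outs here: spheroids exposed to agents for 7 days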;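 on viability, T/C: percent viability relative to DMSO vehicle wells taken as 100%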", "conditions": "for pIC50: curve of first compound; for viability, T/C: stronger effect = lower value", "summary_of_the_method": "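Tumor cells were grown as multicellular spheroids with stromal HUVEC and mesenchymal stem cells and treated singly or in combination. Concentrations fell in half-log steps from the clinical Cmax, or from 10 microM where none was known.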", "note": "pIC50: −log10 of the molar value."}
{"smiles": "Cc1nc(N2CCC3(CC2)COC(C)C3N)c(CO)nc1Sc1ccnc(N)c1Cl", "note": "(centres undefined) + CNC(C)C(=O)NC1CN(S(=O)(=O)c2cccc(S(=O)(=O)N3CCC4CCC(C(=O)NC(c5ccccc5)c5ccccc5)N4C(=O)C(NC(=O)C(C)NC)C3)c2)CCC2CCC(C(=O)NC(c3ccccc3)c3ccccc3)N2C1=O", "values": [{"measurement": "pIC50", "setting": "second compound 0.00316 µM", "result": "< 5.52"}, {"measurement": "pIC50", "setting": "second compound 0.01 µM", "result": "< 5.52"}, {"measurement": "pIC50", "setting": "second compound 0.0316 µM", "result": "< 5.52"}, {"measurement": "pIC50", "setting": "second compound 0.1 µM", "result": "< 5.52"}, {"measurement": "pIC50", "setting": "second compound 0.316 µM", "result": "< 5.52"}, {"measurement": "pIC50", "setting": "second compound 1 µM", "result": "< 5.52"}, {"measurement": "viability, T/C", "setting": "second compound 0.00316 µM, first compound 0.00949 µM", "result": 94.8, "unit": "%"}, {"measurement": "viability, T/C", "setting": "second compound 0.00316 µM, first compound 0.03 µM", "result": 85, "unit": "%"}, {"measurement": "viability, T/C", "setting": "second compound 0.00316 µM, first compound 0.0949 µM", "result": 96.7, "unit": "%"}, {"measurement": "viability, T/C", "setting": "second compound 0.00316 µM, first compound 0.3 µM", "result": 84.3, "unit": "%"}, {"measurement": "viability, T/C", "setting": "second compound 0.00316 µM, first compound 0.949 µM", "result": 87.7, "unit": "%"}, {"measurement": "viability, T/C", "setting": "second compound 0.00316 µM, first compound 3 µM", "result": 87.1, "unit": "%"}, {"measurement": "viability, T/C", "setting": "second compound 0.01 µM, first compound 0.00949 µM", "result": 91.1, "unit": "%"}, {"measurement": "viability, T/C", "setting": "second compound 0.01 µM, first compound 0.03 µM", "result": 82.6, "unit": "%"}, {"measurement": "viability, T/C", "setting": "second compound 0.01 µM, first compound 0.0949 µM", "result": 79.7, "unit": "%"}, {"measurement": "viability, T/C", "setting": "second compound 0.01 µM, first compound 0.3 µM", "result": 89.4, "unit": "%"}, {"measurement": "viability, T/C", "setting": "second compound 0.01 µM, first compound 0.949 µM", "result": 85.8, "unit": "%"}, {"measurement": "viability, T/C", "setting": "second compound 0.01 µM, first compound 3 µM", "result": 95.1, "unit": "%"}, {"measurement": "viability, T/C", "setting": "second compound 0.0316 µM, first compound 0.00949 µM", "result": 93.4, "unit": "%"}, {"measurement": "viability, T/C", "setting": "second compound 0.0316 µM, first compound 0.03 µM", "result": 79.9, "unit": "%"}, {"measurement": "viability, T/C", "setting": "second compound 0.0316 µM, first compound 0.0949 µM", "result": 92.8, "unit": "%"}, {"measurement": "viability, T/C", "setting": "second compound 0.0316 µM, first compound 0.3 µM", "result": 86.3, "unit": "%"}, {"measurement": "viability, T/C", "setting": "second compound 0.0316 µM, first compound 0.949 µM", "result": 87.6, "unit": "%"}, {"measurement": "viability, T/C", "setting": "second compound 0.0316 µM, first compound 3 µM", "result": 78.9, "unit": "%"}, {"measurement": "viability, T/C", "setting": "second compound 0.1 µM, first compound 0.00949 µM", "result": 85.3, "unit": "%"}, {"measurement": "viability, T/C", "setting": "second compound 0.1 µM, first compound 0.03 µM", "result": 93, "unit": "%"}, {"measurement": "viability, T/C", "setting": "second compound 0.1 µM, first compound 0.0949 µM", "result": 90, "unit": "%"}, {"measurement": "viability, T/C", "setting": "second compound 0.1 µM, first compound 0.3 µM", "result": 83.8, "unit": "%"}, {"measurement": "viability, T/C", "setting": "second compound 0.1 µM, first compound 0.949 µM", "result": 90.9, "unit": "%"}, {"measurement": "viability, T/C", "setting": "second compound 0.1 µM, first compound 3 µM", "result": 89.5, "unit": "%"}, {"measurement": "viability, T/C", "setting": "second compound 0.316 µM, first compound 0.00949 µM", "result": 89.5, "unit": "%"}, {"measurement": "viability, T/C", "setting": "second compound 0.316 µM, first compound 0.03 µM", "result": 84.1, "unit": "%"}, {"measurement": "viability, T/C", "setting": "second compound 0.316 µM, first compound 0.0949 µM", "result": 86.7, "unit": "%"}, {"measurement": "viability, T/C", "setting": "second compound 0.316 µM, first compound 0.3 µM", "result": 84.4, "unit": "%"}, {"measurement": "viability, T/C", "setting": "second compound 0.316 µM, first compound 0.949 µM", "result": 83.4, "unit": "%"}, {"measurement": "viability, T/C", "setting": "second compound 0.316 µM, first compound 3 µM", "result": 81.2, "unit": "%"}, {"measurement": "viability, T/C", "setting": "second compound 1 µM, first compound 0.00949 µM", "result": 86.5, "unit": "%"}, {"measurement": "viability, T/C", "setting": "second compound 1 µM, first compound 0.03 µM", "result": 89.8, "unit": "%"}, {"measurement": "viability, T/C", "setting": "second compound 1 µM, first compound 0.0949 µM", "result": 82.6, "unit": "%"}, {"measurement": "viability, T/C", "setting": "second compound 1 µM, first compound 0.3 µM", "result": 82.7, "unit": "%"}, {"measurement": "viability, T/C", "setting": "second compound 1 µM, first compound 0.949 µM", "result": 75.6, "unit": "%"}, {"measurement": "viability, T/C", "setting": "second compound 1 µM, first compound 3 µM", "result": 85.9, "unit": "%"}]}
{"smiles": "O=C(c1cc(Cc2n[nH]c(=O)c3ccccc23)ccc1F)N1CCN(C(=O)C2CC2)CC1", "note": "+ Cc1c(S(C)(=O)=O)c(-c2cc(F)cc(N3CCN(c4ccc(NS(=O)(=O)c5ccc(NC(CCN6CCC(C(=O)OCCCP(=O)(O)O)CC6)CSc6ccccc6)c(S(=O)(=O)C(F)(F)F)c5)cc4)CC3)c2)c(-c2ccc(Cl)cc2)n1C(C)C", "values": [{"measurement": "pIC50", "setting": "second compound 0.0316 µM", "result": "< 5.00"}, {"measurement": "pIC50", "setting": "second compound 0.1 µM", "result": "< 5.00"}, {"measurement": "pIC50", "setting": "second compound 0.316 µM", "result": "< 5.00"}, {"measurement": "pIC50", "setting": "second compound 1 µM", "result": "< 5.00"}, {"measurement": "pIC50", "setting": "second compound 3.16 µM", "result": "< 5.00"}, {"measurement": "pIC50", "setting": "second compound 10 µM", "result": "< 5.00"}, {"measurement": "viability, T/C", "setting": "second compound 0.0316 µM, first compound 0.0316 µM", "result": 106, "unit": "%"}, {"measurement": "viability, T/C", "setting": "second compound 0.0316 µM, first compound 0.1 µM", "result": 104, "unit": "%"}, {"measurement": "viability, T/C", "setting": "second compound 0.0316 µM, first compound 0.316 µM", "result": 107, "unit": "%"}, {"measurement": "viability, T/C", "setting": "second compound 0.0316 µM, first compound 1 µM", "result": 107, "unit": "%"}, {"measurement": "viability, T/C", "setting": "second compound 0.0316 µM, first compound 3.16 µM", "result": 99, "unit": "%"}, {"measurement": "viability, T/C", "setting": "second compound 0.0316 µM, first compound 10 µM", "result": 93.7, "unit": "%"}, {"measurement": "viability, T/C", "setting": "second compound 0.1 µM, first compound 0.0316 µM", "result": 89, "unit": "%"}, {"measurement": "viability, T/C", "setting": "second compound 0.1 µM, first compound 0.1 µM", "result": 107, "unit": "%"}, {"measurement": "viability, T/C", "setting": "second compound 0.1 µM, first compound 0.316 µM", "result": 107, "unit": "%"}, {"measurement": "viability, T/C", "setting": "second compound 0.1 µM, first compound 1 µM", "result": 103, "unit": "%"}, {"measurement": "viability, T/C", "setting": "second compound 0.1 µM, first compound 3.16 µM", "result": 117, "unit": "%"}, {"measurement": "viability, T/C", "setting": "second compound 0.1 µM, first compound 10 µM", "result": 95.5, "unit": "%"}, {"measurement": "viability, T/C", "setting": "second compound 0.316 µM, first compound 0.0316 µM", "result": 102, "unit": "%"}, {"measurement": "viability, T/C", "setting": "second compound 0.316 µM, first compound 0.1 µM", "result": 103, "unit": "%"}, {"measurement": "viability, T/C", "setting": "second compound 0.316 µM, first compound 0.316 µM", "result": 112, "unit": "%"}, {"measurement": "viability, T/C", "setting": "second compound 0.316 µM, first compound 1 µM", "result": 112, "unit": "%"}, {"measurement": "viability, T/C", "setting": "second compound 0.316 µM, first compound 3.16 µM", "result": 103, "unit": "%"}, {"measurement": "viability, T/C", "setting": "second compound 0.316 µM, first compound 10 µM", "result": 86.1, "unit": "%"}, {"measurement": "viability, T/C", "setting": "second compound 1 µM, first compound 0.0316 µM", "result": 112, "unit": "%"}, {"measurement": "viability, T/C", "setting": "second compound 1 µM, first compound 0.1 µM", "result": 101, "unit": "%"}, {"measurement": "viability, T/C", "setting": "second compound 1 µM, first compound 0.316 µM", "result": 105, "unit": "%"}, {"measurement": "viability, T/C", "setting": "second compound 1 µM, first compound 1 µM", "result": 111, "unit": "%"}, {"measurement": "viability, T/C", "setting": "second compound 1 µM, first compound 3.16 µM", "result": 111, "unit": "%"}, {"measurement": "viability, T/C", "setting": "second compound 1 µM, first compound 10 µM", "result": 86.9, "unit": "%"}, {"measurement": "viability, T/C", "setting": "second compound 3.16 µM, first compound 0.0316 µM", "result": 103, "unit": "%"}, {"measurement": "viability, T/C", "setting": "second compound 3.16 µM, first compound 0.1 µM", "result": 106, "unit": "%"}, {"measurement": "viability, T/C", "setting": "second compound 3.16 µM, first compound 0.316 µM", "result": 106, "unit": "%"}, {"measurement": "viability, T/C", "setting": "second compound 3.16 µM, first compound 1 µM", "result": 115, "unit": "%"}, {"measurement": "viability, T/C", "setting": "second compound 3.16 µM, first compound 3.16 µM", "result": 119, "unit": "%"}, {"measurement": "viability, T/C", "setting": "second compound 3.16 µM, first compound 10 µM", "result": 87.2, "unit": "%"}, {"measurement": "viability, T/C", "setting": "second compound 10 µM, first compound 0.0316 µM", "result": 166, "unit": "%"}, {"measurement": "viability, T/C", "setting": "second compound 10 µM, first compound 0.1 µM", "result": 178, "unit": "%"}, {"measurement": "viability, T/C", "setting": "second compound 10 µM, first compound 0.316 µM", "result": 187, "unit": "%"}, {"measurement": "viability, T/C", "setting": "second compound 10 µM, first compound 1 µM", "result": 202, "unit": "%"}, {"measurement": "viability, T/C", "setting": "second compound 10 µM, first compound 3.16 µM", "result": 171, "unit": "%"}, {"measurement": "viability, T/C", "setting": "second compound 10 µM, first compound 10 µM", "result": 88.9, "unit": "%"}]}
